The text below walks through data of PubChem BioAssay (NCI).

Some test systems named below: SF-539 CNS; EKVX NSCLC; HCT-116 colon; SW-620 colon; MALME-3M melanoma; SK-MEL-5 melanoma; BT-549 breast; HS 578T breast; MDA-MB-231 breast; UACC-62 melanoma; TK-10 renal; HOP-62 NSCLC; K-562 leukemia; 786-0 renal; UACC-257 melanoma; NCI/ADR-RES ovarian; SR leukemia; PC-3 prostate; ACHN renal.
What all share (assay): NCI-60 cell line screen, 48 h

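96-well plates; 48 h exposure; 5 concentrations. Endpoints by linear interpolation between flanking doses. Not reached: highest tested concentration assigned. TGI is the concentration that stops growth completely.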 Bounds are passed on as bounds.

`COC(=O)C(/C(=N/N)C(=O)Nc1ccc(C)c(C)c1)c1nc2ccc(Cl)cc2[nH]c1=O` (stereo not drawn): the TGI with SF-539 CNS, in the experiment on EKVX NSCLC, in the experiment on HCT-116 colon, in the experiment on SW-620 colon, in the experiment on MALME-3M melanoma and in the experiment on SK-MEL-5 melanoma was above 100 µM in each case. The TGI in the experiment with BT-549 breast, with HS 578T breast, in the experiment with MDA-MB-231 breast, in the experiment with UACC-62 melanoma, in the experiment with TK-10 renal and with HOP-62 NSCLC was above 100 µM throughout. Moreover, the TGI in the experiment with K-562 leukemia, in the experiment on 786-0 renal, with UACC-257 melanoma, in the experiment with NCI/ADR-RES ovarian, in the experiment with SR leukemia and in the experiment on PC-3 prostate was above 100 µM throughout. The TGI in the experiment with ACHN renal is above 100 µM.
Consider `CCOC(=O)C1c2[nH]c3ccccc3c2CCN1C(=O)c1ccco1` (stereo not drawn), for which the TGI in the experiment with SF-539 CNS, in the experiment on EKVX NSCLC, in the experiment with HCT-116 colon, in the experiment on SW-620 colon, with MALME-3M melanoma and with SK-MEL-5 melanoma was above 10 µM in each case. The TGI in the experiment with BT-549 breast, in the experiment on HS 578T breast, with MDA-MB-231 breast, with UACC-62 melanoma, in the experiment with TK-10 renal and in the experiment on HOP-62 NSCLC was above 10 µM each time. Also, the TGI with K-562 leukemia, in the experiment on 786-0 renal, in the experiment with UACC-257 melanoma, in the experiment with NCI/ADR-RES ovarian, in the experiment with SR leukemia and in the experiment on PC-3 prostate was above 10 µM throughout. This molecule gave a TGI in the experiment on ACHN renal above 10 µM.
For `O=C(O)CN1CCNCCN(CC(=O)O)CCNCC1`, the TGI in the experiment on SF-539 CNS is above 100 µM; in the experiment on EKVX NSCLC, above 100 µM; with HCT-116 colon, above 100 µM; in the experiment with SW-620 colon it was above 100 µM; in the experiment with MALME-3M melanoma, above 100 µM; in the experiment with SK-MEL-5 melanoma, 21.9 µM. Besides, the TGI in the experiment with BT-549 breast, with HS 578T breast, in the experiment on MDA-MB-231 breast, in the experiment with UACC-62 melanoma, in the experiment with TK-10 renal and in the experiment on HOP-62 NSCLC was above 100 µM each time. The TGI is above 100 µM in the experiment on K-562 leukemia; above 100 µM in the experiment with 786-0 renal; above 100 µM in the experiment on UACC-257 melanoma; above 100 µM in the experiment with NCI/ADR-RES ovarian; above 96.5 µM with SR leukemia; above 100 µM in the experiment on PC-3 prostate. Besides, the TGI in the experiment with ACHN renal is above 100 µM.
On to `COc1cc(CNc2nc3ccccc3nc2-c2cccs2)cc(OC)c1OC`, for which the TGI in the experiment with SF-539 CNS was above 100 µM; with EKVX NSCLC, above 100 µM; with HCT-116 colon, above 100 µM; in the experiment with SW-620 colon, above 100 µM; in the experiment on MALME-3M melanoma, 79.3 µM; in the experiment on SK-MEL-5 melanoma, 28.8 µM. Further, the TGI in the experiment on BT-549 breast is 12.9 µM; with HS 578T breast it was 74.8 µM; in the experiment on MDA-MB-231 breast it was above 100 µM; in the experiment with UACC-62 melanoma, 62.5 µM; with TK-10 renal, above 100 µM; in the experiment with HOP-62 NSCLC, above 100 µM. Also, the TGI in the experiment on K-562 leukemia was 97.7 µM; with 786-0 renal it was above 100 µM; with UACC-257 melanoma it was above 100 µM; with NCI/ADR-RES ovarian, 51.2 µM; in the experiment on SR leukemia it was above 100 µM; in the experiment on PC-3 prostate, 39.4 µM. This molecule returned a TGI in the experiment with ACHN renal of 29.3 µM.
Turning to `C[C@@H](C(=O)O)c1ccc(-c2ccccc2)c(F)c1`, the TGI with SF-539 CNS, with EKVX NSCLC, in the experiment with HCT-116 colon, in the experiment with SW-620 colon, with MALME-3M melanoma and with SK-MEL-5 melanoma was above 100 µM in each case. The TGI with BT-549 breast, in the experiment with HS 578T breast, in the experiment with MDA-MB-231 breast, with UACC-62 melanoma, in the experiment with TK-10 renal and in the experiment on HOP-62 NSCLC was above 100 µM throughout. The TGI in the experiment with K-562 leukemia, in the experiment on 786-0 renal, with UACC-257 melanoma, in the experiment with NCI/ADR-RES ovarian, in the experiment on SR leukemia and in the experiment with PC-3 prostate was above 100 µM throughout. Further, in the experiment with ACHN renal, the TGI is above 100 µM.
As to `COc1ccc(-n2nnc3c(C#N)c(-c4ccccc4)c(C)n3c2=O)cc1`, the TGI in the experiment on SF-539 CNS is above 100 µM; in the experiment with EKVX NSCLC, above 100 µM; with HCT-116 colon, above 100 µM; in the experiment with SW-620 colon, above 100 µM; in the experiment on MALME-3M melanoma it was above 100 µM; with SK-MEL-5 melanoma it was 48 µM. Also, the TGI in the experiment with BT-549 breast is above 100 µM; in the experiment with HS 578T breast it was above 100 µM; in the experiment with MDA-MB-231 breast, 81.6 µM; with UACC-62 melanoma, above 100 µM; in the experiment on TK-10 renal it was above 100 µM; in the experiment on HOP-62 NSCLC it was above 100 µM. In addition, the TGI in the experiment with K-562 leukemia is above 100 µM; with 786-0 renal, 40 µM; in the experiment on UACC-257 melanoma, above 100 µM; in the experiment on NCI/ADR-RES ovarian, above 100 µM; in the experiment on SR leukemia it was 91 µM; with PC-3 prostate, above 100 µM. The same molecule displayed a TGI with ACHN renal above 100 µM.
Consider `Cn1c(=O)nc2n(CCO)ccnc-2c1=O`, for which the TGI in the experiment with SF-539 CNS, in the experiment on EKVX NSCLC, in the experiment on HCT-116 colon, with SW-620 colon, in the experiment on MALME-3M melanoma and with SK-MEL-5 melanoma was above 100 µM in each case. Moreover, the TGI with BT-549 breast, in the experiment on HS 578T breast, in the experiment with MDA-MB-231 breast, with UACC-62 melanoma, with TK-10 renal and with HOP-62 NSCLC was above 100 µM in each case. Besides, the TGI in the experiment with K-562 leukemia, in the experiment with 786-0 renal, in the experiment with UACC-257 melanoma, with NCI/ADR-RES ovarian, in the experiment with SR leukemia and in the experiment with PC-3 prostate was above 100 µM in each case. Besides, the TGI with ACHN renal was above 100 µM.
